Data reported in patent US6514946B1, “Macrolide antibiotics and treatment and prophylaxis of pasteurellosis using the same” (Zaidan Hojin Biseibutsu Kagaku Kenkyu Kai, priority 1999, dated 2003).
≈ marks a conversion by molar mass, not a printed value.

How the values were obtained:
[1] = system: S. aureus Smith (virulent strain); test: microbe, parasite or virus in culture; assay type: cell-based, Staphylococcus aureus; conditions: S. aureus Smith (virulent strain); Mueller hinton agar
Method: (§1) Test 1; Minimum Inhibition Concentration (MIC)
(§2) MIC was measured, based on the standard method of Japan Society of Chemotherapy, on a BHI agar medium (Brain heart-infusion agar, made by Difco Laboratories Inc.(USA)) with respect to Pasteurella and on a Mueller hinton agar medium (Mueller hinton agar, made by Difco, Laboratories Inc.(USA)) with respect to the other test bacteria in both cases according to the double dilution method.

[2] = system: Bacillus subtilis NRRL B-558; test: Minimum inhibition concentration (MIC), agar double dilution method; assay type: cell-based; conditions: Bacillus subtilis NRRL B-558; Mueller hinton agar
Method: as §1, §2

[3] = system: Enterobacter aerogenes ATCC13048; test: as above; assay type: cell-based; conditions: Mueller hinton agar
Method: as §1, §2

Escherichia coli NIHJ = test: as above; assay type: cell-based; conditions: Mueller hinton agar
Method: as §1, §2

[4] = system: Micrococcus luteus PCI1001; test: as above; assay type: cell-based; conditions: Mueller hinton agar
Method: as §1, §2

[5] = system: Pasteurella haemolytica BBPO101 N791; test: as above; assay type: cell-based; conditions: Pasteurella haemolytica BBPO101 N791, strain from cattle; BHI agar
Method: as §1, §2

[6] = system: Salmonella enteritidis 1891; test: as above; assay type: cell-based; conditions: Mueller hinton agar
Method: as §1, §2

Serratia marcescens = test: as above; assay type: cell-based; conditions: Mueller hinton agar
Method: as §1, §2

[7] = system: Shigella dysenteriae JS11910; test: as above; assay type: cell-based; conditions: Shigella dysenteriae JS11910; Mueller hinton agar
Method: as §1, §2

[8] = system: Staphylococcus aureus 193; test: as above; assay type: cell-based; conditions: Mueller hinton agar
Method: as §1, §2

E. coli K-12 R-5 = test: as above; assay type: cell-based, Escherichia coli; conditions: Mueller hinton agar
Method: as §1, §2

[9] = system: Past haemolytica BAPO103 S801; test: as above; assay type: cell-based, Pasteurella haemolytica; conditions: Past haemolytica BAPO103 S801, strain from poultry; BHI agar
Method: as §1, §2

[10] = system: Past haemolytica BBPO102 N811; test: as above; assay type: cell-based, Pasteurella haemolytica; conditions: Past haemolytica BBPO102 N811, strain from cattle; BHI agar
Method: as §1, §2

[11] = system: Past. multocida BOPO305 M-17; test: as above; assay type: cell-based, Pasteurella multocida; conditions: Past. multocida BOPO305 M-17, strain from a sheep; BHI agar
Method: as §1, §2

[12] = system: Past. multocida BSPO302 No. 6; test: as above; assay type: cell-based, Pasteurella multocida; conditions: Past. multocida BSPO302 No. 6, strain from a pig; BHI agar
Method: as §1, §2

S. aureus FDA209P = test: as above; assay type: cell-based, Staphylococcus aureus; conditions: Mueller hinton agar
Method: as §1, §2

[13] = system: Klebsiella pneumoniae PCI602; test: as above; assay type: cell-based; conditions: Mueller hinton agar
Method: as §1, §2

Proteus vulgaris OX19 = test: as above; assay type: cell-based; conditions: Mueller hinton agar
Method: as §1, §2

ICR mice = test: Toxicity test, intravenous or subcutaneous injection; assay type: in vivo
[14] = intravenous injection, 0.25 mg/mouse
[15] = intravenous injection, 0.5 mg/mouse
[16] = intravenous injection, 1.5 mg/mouse
[17] = intravenous injection, 2.0 mg/mouse
[18] = subcutaneous injection, 1.0 mg/mouse
[19] = subcutaneous injection, 2.0 mg/mouse
[20] = subcutaneous injection, 3.0 mg/mouse
[21] = subcutaneous injection, 4.0 mg/mouse

Structure (SMILES) | MIC [1] [µg/mL] | MIC [2] [µg/mL] | MIC [3] [µg/mL] | MIC (Escherichia coli NIHJ) [µg/mL] | MIC [4] [µg/mL] | MIC [5] [µg/mL] | MIC [6] [µg/mL] | MIC (Serratia marcescens) [µg/mL] | MIC [7] [µg/mL] | MIC [8] [µg/mL] | MIC (E. coli K-12 R-5) [µg/mL] | MIC [9] [µg/mL] | MIC [10] [µg/mL] | MIC [11] [µg/mL] | MIC [12] [µg/mL] | MIC (S. aureus FDA209P) [µg/mL] | MIC [13] [µg/mL] | MIC (Proteus vulgaris OX19) [µg/mL] | other results
CC[C@H]1OC(=O)C[C@@H](O)[C@H](C)[C@@H](O[C@@H]2O[C@H](C)C(O)C(N(C)C)C2O)[C@@H](CCN2CCCC2)C[C@@H](C)C(=O)/C=C/C(C)=C/[C@@H]1CN1CCCC1 (stereo partly drawn) [Compound C-6] | 25 (≈ 35.4 µM) | 50 (≈ 70.8 µM) | 50 (≈ 70.8 µM) | 6.25 (≈ 8.85 µM) | 1.56 (≈ 2.21 µM) | 1.56 (≈ 2.21 µM) | 3.13 (≈ 4.43 µM) | 100 (≈ 142 µM) | 12.5 (≈ 17.7 µM) | 25 (≈ 35.4 µM) | >100 | 25 (≈ 35.4 µM) | 1.56 (≈ 2.21 µM) | 3.13 (≈ 4.43 µM) | 6.25 (≈ 8.85 µM) | – | – | – | –
CC[C@H]1OC(=O)C[C@@H](O)[C@H](C)[C@@H](O[C@@H]2O[C@H](C)C(O)C(N(C)C)C2O)[C@@H](CCN(Cc2ccccc2)Cc2ccccc2)C[C@@H](C)C(=O)/C=C/C(C)=C/[C@@H]1CN(Cc1ccccc1)Cc1ccccc1 (stereo partly drawn) [Compound C-5] | 50 (≈ 52.2 µM) | 50 (≈ 52.2 µM) | >100 | >100 | 6.25 (≈ 6.52 µM) | 50 (≈ 52.2 µM) | >100 | 100 (≈ 104 µM) | >100 | 12.5 (≈ 13 µM) | >100 | >100 | 50 (≈ 52.2 µM) | >100 | >100 | 12.5 (≈ 13 µM) | >100 | >100 | –
CCCCCCN(CCCCCC)CC[C@H]1C[C@@H](C)C(=O)/C=C/C(C)=C/[C@H](CN(CCCCCC)CCCCCC)[C@@H](CC)OC(=O)C[C@@H](O)[C@H](C)[C@H]1O[C@@H]1O[C@H](C)C(O)C(N(C)C)C1O (stereo partly drawn) [Compound C-2] | 6.25 (≈ 6.69 µM) | 12.5 (≈ 13.4 µM) | >100 | >100 | 6.25 (≈ 6.69 µM) | 12.5 (≈ 13.4 µM) | >100 | >100 | >100 | 3.13 (≈ 3.35 µM) | >100 | 100 (≈ 107 µM) | 12.5 (≈ 13.4 µM) | 50 (≈ 53.5 µM) | 50 (≈ 53.5 µM) | 6.25 (≈ 6.69 µM) | >100 | >100 | –
CC[C@H]1OC(=O)C[C@@H](O)[C@H](C)[C@@H](O[C@@H]2O[C@H](C)C(O)C(N(C)C)C2O)[C@@H](CCN2CCC(C)CC2)C[C@@H](C)C(=O)/C=C/C(C)=C/[C@@H]1CN1CCC(C)CC1 (stereo partly drawn) [MP-MT] | – | 25 (≈ 32.8 µM) | 12.5 (≈ 16.4 µM) | – | 0.78 (≈ 1.02 µM) | 0.39 (≈ 0.512 µM) | 3.13 (≈ 4.11 µM) | 50 (≈ 65.6 µM) | 6.25 (≈ 8.2 µM) | 1.56 (≈ 2.05 µM) | >100 | 3.13 (≈ 4.11 µM) | 0.39 (≈ 0.512 µM) | 0.39 (≈ 0.512 µM) | 0.39 (≈ 0.512 µM) | 1.56 (≈ 2.05 µM) | 3.13 (≈ 4.11 µM) | 12.5 (≈ 16.4 µM) | –
CC[C@H]1OC(=O)C[C@@H](O)[C@H](C)[C@@H](O[C@@H]2O[C@H](C)C(O)C(N(C)C)C2O)[C@@H](CCN2CC(C)CC(C)C2)C[C@@H](C)C(=O)/C=C/C(C)=C/[C@@H]1CN1CC(C)CC(C)C1 (stereo partly drawn) [DMP-MT] | 6.25 (≈ 7.91 µM) | – | 25 (≈ 31.6 µM) | 6.25 (≈ 7.91 µM) | 1.56 (≈ 1.97 µM) | 0.39 (≈ 0.494 µM) | 3.13 (≈ 3.96 µM) | 100 (≈ 127 µM) | 12.5 (≈ 15.8 µM) | 3.13 (≈ 3.96 µM) | >100 | 1.56 (≈ 1.97 µM) | 0.39 (≈ 0.494 µM) | 0.39 (≈ 0.494 µM) | 0.78 (≈ 0.987 µM) | 1.56 (≈ 1.97 µM) | 6.25 (≈ 7.91 µM) | 25 (≈ 31.6 µM) | –
CC[C@H]1OC(=O)C[C@@H](O)[C@H](C)[C@@H](O[C@@H]2O[C@H](C)C(O)C(N(C)C)C2O)[C@@H](CCN(C)C2CCCCC2)C[C@@H](C)C(=O)/C=C/C(C)=C/[C@@H]1CN(C)C1CCCCC1 (stereo partly drawn) [Compound C-3] | 3.13 (≈ 3.96 µM) | 3.13 (≈ 3.96 µM) | 12.5 (≈ 15.8 µM) | 3.13 (≈ 3.96 µM) | 0.78 (≈ 0.987 µM) | 0.39 (≈ 0.494 µM) | 1.56 (≈ 1.97 µM) | 50 (≈ 63.3 µM) | 6.25 (≈ 7.91 µM) | 1.56 (≈ 1.97 µM) | – | – | 0.78 (≈ 0.987 µM) | 1.56 (≈ 1.97 µM) | 1.56 (≈ 1.97 µM) | 1.56 (≈ 1.97 µM) | 3.13 (≈ 3.96 µM) | 12.5 (≈ 15.8 µM) | –
CC[C@H]1OC(=O)C[C@@H](O)[C@H](C)[C@@H](O[C@@H]2O[C@H](C)C(O)C(N(C)C)C2O)[C@@H](CCN(C)Cc2ccccc2)C[C@@H](C)C(=O)/C=C/C(C)=C/[C@@H]1CN(C)Cc1ccccc1 (stereo partly drawn) [Compound C-4] | 6.25 (≈ 7.75 µM) | – | 12.5 (≈ 15.5 µM) | 6.25 (≈ 7.75 µM) | 0.20 (≈ 0.248 µM) | 0.39 (≈ 0.484 µM) | 1.56 (≈ 1.94 µM) | 100 (≈ 124 µM) | 3.13 (≈ 3.88 µM) | 0.39 (≈ 0.484 µM) | >100 | 6.25 (≈ 7.75 µM) | 0.39 (≈ 0.484 µM) | 0.76 (≈ 0.943 µM) | 1.56 (≈ 1.94 µM) | 0.39 (≈ 0.484 µM) | 6.25 (≈ 7.75 µM) | 12.5 (≈ 15.5 µM) | –
CC[C@H]1OC(=O)C[C@@H](O)[C@H](C)[C@@H](O[C@@H]2O[C@H](C)C(O)C(N(C)C)C2O)[C@@H](CCN2CCCCCC2)C[C@@H](C)C(=O)/C=C/C(C)=C/[C@@H]1CN1CCCCCC1 (stereo partly drawn) [Compound C-7] | 3.13 (≈ 4.11 µM) | 6.25 (≈ 8.2 µM) | 3.13 (≈ 4.11 µM) | – | 0.20 (≈ 0.262 µM) | 0.20 (≈ 0.262 µM) | 0.78 (≈ 1.02 µM) | 12.5 (≈ 16.4 µM) | 1.56 (≈ 2.05 µM) | – | 25 (≈ 32.8 µM) | – | 0.20 (≈ 0.262 µM) | 0.10 (≈ 0.131 µM) | 0.39 (≈ 0.512 µM) | – | 0.78 (≈ 1.02 µM) | 3.13 (≈ 4.11 µM) | Dissection finding (ICR mice; [14]): no abnormal finding; Surviving number (ICR mice; [14]): 2/2; Dissection finding (ICR mice; [15]): no abnormal finding; Surviving number (ICR mice; [15]): 1/2 (immediate death); Dissection finding (ICR mice; [16]): no abnormal finding; Surviving number (ICR mice; [16]): 0/2 (immediate death); Dissection finding (ICR mice; [17]): no abnormal finding; Surviving number (ICR mice; [17]): 0/2 (immediate death); Dissection finding (ICR mice; [18]): no abnormal finding; Surviving number / number of used animals (ICR mice; [18]): 2/2; Dissection finding (ICR mice; [19]): no abnormal finding; Surviving number / number of used animals (ICR mice; [19]): 2/2; Dissection finding (ICR mice; [20]): a little decoloring in kidney; Surviving number / number of used animals (ICR mice; [20]): 2/2; Dissection finding (ICR mice; [21]): no abnormal finding; Surviving number / number of used animals (ICR mice; [21]): 0/1 (died after 30 minutes)
